Measurements taken from ChEMBL document CHEMBL6127136, “Discovery of 1-(Phenylsulfonyl)-1,2,3,4-tetrahydroquinoline Derivative as Orally Bioavailable and Safe RORγt Inverse Agonists for Potential Treatment of Rheumatoid Arthritis” (J Med Chem, 2024).
Calls of active or inactive are those of the source. The calls are words filed in the database; no cut-off is given here.

Experiments:
[1] = target: T1, Nuclear receptor ROR-gamma (Homo sapiens, UniProt P51449); assay: Inverse agonist activity at N-terminal 6-His-tagged/APC-labeled human RORgammat LBD extracted from Escherichia coli assessed as inhibition of europium-labeled SRC-1 recruitment incubated for 3 hrs by TR-FRET analysis
T1 sequence (P51449 whole entry): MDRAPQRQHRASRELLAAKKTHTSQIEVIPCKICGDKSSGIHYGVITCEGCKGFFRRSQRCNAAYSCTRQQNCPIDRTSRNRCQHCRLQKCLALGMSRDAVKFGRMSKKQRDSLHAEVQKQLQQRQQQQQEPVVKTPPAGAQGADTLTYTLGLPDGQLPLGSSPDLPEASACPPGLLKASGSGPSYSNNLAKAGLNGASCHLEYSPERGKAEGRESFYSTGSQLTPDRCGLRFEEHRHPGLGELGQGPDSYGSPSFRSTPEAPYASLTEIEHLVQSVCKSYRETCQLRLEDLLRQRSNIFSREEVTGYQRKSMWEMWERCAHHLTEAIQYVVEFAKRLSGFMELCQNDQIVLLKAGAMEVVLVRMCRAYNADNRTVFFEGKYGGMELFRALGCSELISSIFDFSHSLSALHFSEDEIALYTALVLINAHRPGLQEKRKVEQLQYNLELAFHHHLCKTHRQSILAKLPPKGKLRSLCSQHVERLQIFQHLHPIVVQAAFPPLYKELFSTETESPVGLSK

HeLa = assay: Antiproliferative activity against human HeLa cells assessed as inhibition of colony formation at 2 to 8 uM incubated for 7 days by crystal violet staining based light microscopic analysis; assay type: toxicity, cell-based; conditions: 168 h, dose 2-8 µM, time 7 day
HUVEC = assay: Antiproliferative activity against HUVEC cells assessed as inhibition of colony formation at 2 to 8 uM incubated for 7 days by crystal violet staining based light microscopic analysis; assay type: toxicity, cell-based; conditions: human, 168 h, dose 2-8 µM, time 7 day
[2] = target: T1, Nuclear receptor ROR-gamma; assay: Inverse agonist activity at GAL4 DNA-binding domain fused RORgamma (unknown origin) transfected in HEK293T cells co-transfected with GAL4-promoter driven luciferase reporter gene assessed as inhibition of RORgammat transcription incubated for 18 to 20 hrs by plate reader analysis; assay type: cell-based
[3] = Half-life in male DBA/1 mouse at 5 mg/kg, iv measured after 24 hrs by HPLC analysis; assay type: ADME, organism-based; conditions: in vivo
[4] = Tmax in male DBA/1 mouse at 5 mg/kg, iv measured after 24 hrs by HPLC analysis; assay type: ADME, organism-based; conditions: in vivo
[5] = Cmax in male DBA/1 mouse at 5 mg/kg, iv measured after 24 hrs by HPLC analysis; assay type: ADME, organism-based; conditions: in vivo
[6] = AUC (0 to t) in male DBA/1 mouse at 5 mg/kg, iv measured after 24 hrs by HPLC analysis; assay type: ADME, organism-based; conditions: in vivo
[7] = AUC (0 to infinity) in male DBA/1 mouse at 5 mg/kg, iv measured after 24 hrs by HPLC analysis; assay type: ADME, organism-based; conditions: in vivo
[8] = Clearance in male DBA/1 mouse at 5 mg/kg, iv measured after 24 hrs by HPLC analysis; assay type: ADME, organism-based; conditions: in vivo
[9] = Half-life in male DBA/1 mouse at 20 mg/kg, po measured after 24 hrs by HPLC analysis; assay type: ADME, organism-based; conditions: in vivo
[10] = Tmax in male DBA/1 mouse at 20 mg/kg, po measured after 24 hrs by HPLC analysis; assay type: ADME, organism-based; conditions: in vivo
[11] = Cmax in male DBA/1 mouse at 20 mg/kg, po measured after 24 hrs by HPLC analysis; assay type: ADME, organism-based; conditions: in vivo
[12] = AUC (0 to t) in male DBA/1 mouse at 20 mg/kg, po measured after 24 hrs by HPLC analysis; assay type: ADME, organism-based; conditions: in vivo
[13] = AUC (0 to infinity) in male DBA/1 mouse at 20 mg/kg, po measured after 24 hrs by HPLC analysis; assay type: ADME, organism-based; conditions: in vivo
[14] = Oral bioavailability in male DBA/1 mouse at 20 mg/kg measured after 24 hrs by HPLC analysis; assay type: ADME, organism-based; conditions: in vivo
[15] = Toxicity in imiquimod-induced psoriasis-like skin inflammation Balb/c mouse model assessed as change in body weight at 5 to 15 mg/kg, IG preadministered with IMQ for 3 days followed by compound administration from day 4 and measured on day 14; assay type: organism-based; conditions: in vivo, po, 264 h, dose 5-15 mg/kg, time 11 day
Mus musculus [16] = assay: (§1) Antiinflammatory activity against imiquimod-induced psoriasis-like skin inflammation in Balb/c mouse model assessed as reduction in total psoriasis area preadministered with IMQ for 3 days followed by intragastric compound administration from day 4 and measured on day 14; assay type: functional, organism-based; conditions: dose 10-15 mg/kg, route ig, time 11.0 day
Mus musculus [17] = assay: Antiinflammatory activity against imiquimod-induced psoriasis-like skin inflammation in Balb/c mouse model assessed as reduction in total psoriasis severity index preadministered with IMQ for 3 days followed by intragastric compound administration from day 4 and measured on day 14; assay type: functional, organism-based; conditions: dose 10-15 mg/kg, route ig, time 11.0 day
Mus musculus [18] = assay: Antiinflammatory activity against imiquimod-induced psoriasis-like skin inflammation in Balb/c mouse model assessed as reduction in IL-17A level in peripheral blood preadministered with IMQ for 3 days followed by intragastric compound administration from day 4 and measured on day 13 by ELISA; assay type: functional, organism-based; conditions: dose 5-15 mg/kg, route ig, time 10.0 day
Mus musculus [19] = assay: Antiinflammatory activity against imiquimod-induced psoriasis-like skin inflammation in Balb/c mouse model assessed as reduction in IL-17F level in peripheral blood preadministered with IMQ for 3 days followed by intragastric compound administration from day 4 and measured on day 13 by ELISA; assay type: functional, organism-based; conditions: dose 5-15 mg/kg, route ig, time 10.0 day
Mus musculus [20] = assay: Antiinflammatory activity against imiquimod-induced psoriasis-like skin inflammation in Balb/c mouse model assessed as reduction in IL-23 level in peripheral blood preadministered with IMQ for 3 days followed by intragastric compound administration from day 4 and measured on day 13 by ELISA; assay type: functional, organism-based; conditions: dose 5-15 mg/kg, route ig, time 10.0 day
Mus musculus [21] = assay: as §1, with “mononuclear cell infiltration in skin at 15 mg/kg, IG” for “total psoriasis area”, “by” for “by intragastric”, “14 by H and E staining based analysis” for “14”; assay type: functional, organism-based; conditions: time 11.0 day
Mus musculus [22] = assay: as §1, with “inflammatory cell infiltration in skin at 15 mg/kg, IG” for “total psoriasis area”, “by” for “by intragastric”, “14 by H and E staining based analysis” for “14”; assay type: functional, organism-based; conditions: time 11.0 day
Mus musculus [23] = assay: (§2) Antiinflammatory activity against imiquimod-induced psoriasis-like skin inflammation in Balb/c mouse model assessed as attenuation of skin layer thickening at 15 mg/kg, IG preadministered with IMQ for 3 days followed by compound administration from day 4 and measured on day 14 by H and E staining based analysis; assay type: functional, organism-based; conditions: time 11.0 day
Mus musculus [24] = assay: as §2, with “decrease in dermal telangiectasia” for “attenuation of skin layer thickening”; assay type: functional, organism-based; conditions: time 11.0 day
Mus musculus [25] = assay: as §2, with “decrease in IL-17A expression in” for “attenuation of”, “skin” for “skin layer thickening”, “immunohistochemical” for “H and E staining based”; assay type: functional, organism-based; conditions: time 11.0 day
Mus musculus [26] = assay: as §2, with “decrease in IL-17F expression in” for “attenuation of”, “skin” for “skin layer thickening”, “immunohistochemical” for “H and E staining based”; assay type: functional, organism-based; conditions: time 11.0 day
Mus musculus [27] = assay: as §2, with “decrease in IL-23 expression in” for “attenuation of”, “skin” for “skin layer thickening”, “immunohistochemical” for “H and E staining based”; assay type: functional, organism-based; conditions: time 11.0 day
Mus musculus [28] = assay: as §1, with “decrease” for “reduction”, “IL-17A expression in skin” for “total psoriasis area”, “14 by immunohistochemical analysis” for “14”; assay type: functional, organism-based; conditions: dose 5-15 mg/kg, route ig, time 11.0 day
Mus musculus [29] = assay: as §1, with “decrease” for “reduction”, “IL-17F expression in skin” for “total psoriasis area”, “14 by immunohistochemical analysis” for “14”; assay type: functional, organism-based; conditions: dose 5-15 mg/kg, route ig, time 11.0 day
Mus musculus [30] = assay: as §1, with “decrease” for “reduction”, “IL-23 expression in skin” for “total psoriasis area”, “14 by immunohistochemical analysis” for “14”; assay type: functional, organism-based; conditions: dose 5-15 mg/kg, route ig, time 11.0 day

IC50 [1]: 3.5 nM
IC50 [2]: 21 nM
half-life [3]: 232 min
Tmax [4]: 4.98 min
Cmax [5]: 1210 ng/mL
AUC(0-t) at 24 h [6]: 995 ng·h/mL
AUC(0-inf) [7]: 1020 ng·h/mL
clearance [8]: 81.9 mL/min/kg
half-life [9]: 280 min
Tmax [10]: 30 min
Cmax [11]: 485 ng/mL
AUC(0-t) at 24 h [12]: 1890 ng·h/mL
AUC(0-inf) [13]: 1960 ng·h/mL
bioavailability [14]: 48.1%
Structure (SMILES): CCC1CCc2cc(C(C)C)ccc2N1S(=O)(=O)c1ccc(OCC2CCOCC2)c(CO)c1 (racemic)
Activity (HeLa): Non-Toxic
Activity (HUVEC): Non-Toxic
Activity [15]: Non-Toxic
Activity (Mus musculus [16]): Dose-Dependent Effect
Activity (Mus musculus [17]): Dose-Dependent Effect
Activity (Mus musculus [18]): Dose-Dependent Effect
Activity (Mus musculus [19]): Dose-Dependent Effect
Activity (Mus musculus [20]): Dose-Dependent Effect
Activity (Mus musculus [21]): Active
Activity (Mus musculus [22]): Active
Activity (Mus musculus [23]): Active
Activity (Mus musculus [24]): Active
Activity (Mus musculus [25]): Active
Activity (Mus musculus [26]): Active
Activity (Mus musculus [27]): Active
Activity (Mus musculus [28]): Dose-Dependent Effect
Activity (Mus musculus [29]): Dose-Dependent Effect
Activity (Mus musculus [30]): Dose-Dependent Effect
